Here are results for five compounds from US20080255183A1, “N-[HETEROARYLCARBONYL]-3-THIENYL-L-ALANINE DERIVATIVES AS a5beta1 ANTAGONISTS” (ASTRAZENECA AB, priority 2007, published 2008).

Assay [1] has as its target recombinant human α5β1 integrin (Homo sapiens, UniProt P05556+P08648). In words: In vitro binding assay (a): inhibition of binding of α5β1 integrin to a fragment of human fibronectin (Fn9-10), Origen electrochemiluminescence. The conditions noted are these: geometric mean of the measured IC50 values; n given below each value. The source says: The assay determined the ability of compounds to inhibit binding of α5β1 integrin to a cognate ligand, a fragment of human fibronectin. The assay used Origen technology (IGEN International) to measure the compound activity. Briefly, α5β1 integrin was coated onto epoxy-paramagnetic beads (Dynal Biotech UK, Bromborough, Wirral, CH62 3QL, UK, Catalogue No 140.11) and biotinylated-fibronectin ligand was coupled to strepatividin labeled Tag-NHS-Ester (BioVeris Corporation, Witney, Oxfordshire, OX28 4GE, UK, Catalogue No 110034). The ruthenium-labeled tag emits an electrochemiluminescence signal upon stimulation which is detected by the Origen reader. Thus, interaction of integrin and ligand causes association of bead and tag, and the resulting electrochemiluminescence signal reflects the level of integrin interaction with fibronectin.
20 μg of recombinant human α5β1 was coated onto 4×10(7) epoxy-paramagnetic beads according to manufacturers instructions at 4° C. for 24 hours. Integrin coating and corresponding activity was subsequently measured for each batch but typically, 25 ng of coated protein was used per assay well.
A DNA fragment encoding the domains 9-10 (amino-acids 1325-1509) of human fibronectin (Swiss-Prot Accession No. P02751) was isolated from cDNA libraries using standard molecular biology and PCR cloning techniques. The cDNA fragment was sub-cloned into a pT73.3 expression vector containing a GST-epitope tag (developed at AstraZeneca; Bagnall et al., Protein Expression and Purification, 2003, 27: 1-11). Following expression in E. coli, the expressed protein, termed Fn9-10, was purified using the GST-tag using standard purification techniques. The recombinant Fn9-10 was subsequently biotinylated using a EZ-link Sulfo-NHS-LC-Biotinylation kit (Perbio Science UK Ltd., Cramlington, Northumberland, NE231WA, UK, Catalogue No. 21335) and made to give a final concentration of approximately 1 mg/mil. Tag-NHS-Ester was labeled with streptavidin by incubation at room temperature following manufacturers instructions and buffer-exchanged into PBS to give a concentration of 0.5 mg/ml. Immediately prior to the assay, biotinylated-Fn9-10 and Streptavidin-labeled Tag were diluted in Assay Buffer to give a final concentrations of 0.6 ug/ml and 1.5 ug/ml respectively. The Fn9-10 and Tag solutions were then mixed together in equal volumes and incubated on ice for at least 30 minutes prior to the assay.
Test compounds were prepared as 10 mM stock solutions in DMSO (Sigma-Aldrich Company Ltd, Gillingham, Dorset SP8 4XT Catalogue No. 154938) and serially diluted with 4% DMSO to give a range of test concentrations at ×4 required final concentration. Aliquots (20 μl) of each compound dilution were placed into each well of a 384-well round bottomed polypropylene plate (Matrix Technologies, Wilmslow, Cheshire, SK9 3LP, Catalogue No. 4340 384). Each plate also contained control wells: maximum signal was created using wells containing 20 μl of 4% DMSO, and minimum signal corresponding to no binding was created using wells containing 20 μl of 80 mM EDTA (Sigma Catalogue No. E7889).
For the assay, 25 ng (20 ul) of a5b1-bead suspension and […] of the Fn9-10/Tag pre-incubated solution were added to each well containing 20 μl of compound or control solution. Assay plates were then incubated at room temperature for a minimum of 6 hours before being analysed on an Origen plate reader. […]

Assay [2] deals with α5β1 integrin mediated adhesion of K562 cells. Kind of assay: In vitro cell adhesion assay (b): inhibition of α5β1 integrin mediated adhesion of K562 cells to fibronectin fragment Fn9-10. The class given is cell-based, human. The source says: The assay determined the ability of compounds to inhibit the α5β1 integrin mediated adhesion of K562 cells to the ligand, a fragment of human fibronectin. The human K562 erythroleukaemia cell line (LGC Promochem, Teddington, Middlesex, UK, Catalogue No. CCL-243) was routinely maintained in RPMI 1640 medium (Sigma-Aldrich Company Ltd, Gillingham, Dorset SP8 4XT, Catalogue No. R0883) containing 10% heat-inactivated foetal calf serum (PAA lab GmbH, Pasching, Austria Catalogue No. PAA-A15-043) and 1% glutamax-1 (Invitrogen Ltd. Paisley, UK Catalogue No. 35050-038) at 37° C. with 5% CO2 at densities between 1×10^5 and 1×10^6 cells/ml.
A DNA fragment encoding the domains 9-10 (amino-acids 1325-1509) of human fibronectin (Swiss-Prot Accession No. P02751) was isolated from cDNA libraries using standard molecular biology and PCR cloning techniques. The cDNA fragment was sub-cloned into a pT7#3.3 expression vector containing a GST-epitope tag (developed at AstraZeneca; Bagnall et al., Protein Expression and Purification, 2003, 27: 1-11), and the fragment termed Fn9-10. Following expression in E. coli, the expressed protein was purified using the GST-tag using standard purification techniques.
For adhesion assay, a 96-well flat bottomed plate (Greiner Bio one ltd., Gloucester GL10 3SX Catalogue No. 655101) was coated overnight at 4° C. with 100 μl of 20 μg/ml Fn9-10 ligand in Dulbecco's PBS (Gibco#14190-94). The plate was then washed twice with 200 μl of PBS and blocked with 100 μl of 3% BSA (SigmaA7888) in PBS for 1 hour at 37° C. The plates were then washed again 3 times with 200 μl of PBS and left empty.
Test compounds were prepared as 10 mM stock solutions in DMSO (Sigma-Aldrich Company Ltd, Gillingham, Dorset SP8 4XT Catalogue No. 154938) and serially diluted with HBSS (Hanks Buffered Salt solution (Gibco Catalogue No. 14170-088)/2% DMSO to give a range of test concentrations at twice required final concentration. Aliquots (50 μl) of each compound dilution were placed into each well of the Fn9-10 coated plates. Each plate also contained control wells: maximum adhesion signal was created using wells containing 50 μl HBSS/2% DMSO, and minimum signal corresponding to no adhesion was created using wells containing 50 μl HBSS/2% DMSO/20 mM EDTA (Sigma Catalogue No. E7889).
The K562 cells were cultured to 1×10^6 cells/ml, and each culture suspension pooled. Cells were centrifuged at 1200 rpm for 2 mins, and the pellets washed with HBSS followed by HBSS/50 mM HEPES (Sigma Catalogue No. H0887). Cell pellets were pooled and re-suspended in HBSS/0.4 mM manganese chloride/50 mM HEPES (MnCl; Sigma Catalogue No. M1787) to give a final concentration of 4×10^6 cells/ml.
The assay was initiated by the addition of 50 μl of cell suspension into each coated well (200,000 cells/well), thus resulting in final desired compound concentration and a final MnCl concentration of 0.2 mM. The plates were incubated for 45 minutes at 37° C. 5% CO2. After this time, the solution was flicked off as waste, and the remaining cell layer carefully washed twice with 200 μl of PBS, and then fixed with 200 μl of 100% ethanol for 30 minutes.
After fixation, the ethanol was flicked off to waste and 100 μl of 0.1% Crystal violet stain was added to each well, and incubated at ambient temperature for 15 minutes. Excess stain was removed by rinsing 3 times under cold slow running water. The plates were blotted over tissue then solubilised by adding 50 μl of 1% Triton X100 (Sigma Catalogue No. T9284) and shaking at 500 rpm for 30 mins on plate shaker. Finally, 100 μl of deionised water was added to each well and the absorbance was determined at 590 nm on a spectrophotometer. The minimum value was subtracted from all values, and the absorbance signal was plotted against compound concentration to generate IC50 data.

The mark [3] stands for this setting: Homo sapiens, K562, geometric mean of the measured IC50 values, n given below each value, read-out: Adhesion Assay (b) IC50.

pIC50: −log10 of the molar value. Where two headings read alike, the source gives them in different places.

Sequence of recombinant human α5β1 integrin (P08648 42-894 limits assumed): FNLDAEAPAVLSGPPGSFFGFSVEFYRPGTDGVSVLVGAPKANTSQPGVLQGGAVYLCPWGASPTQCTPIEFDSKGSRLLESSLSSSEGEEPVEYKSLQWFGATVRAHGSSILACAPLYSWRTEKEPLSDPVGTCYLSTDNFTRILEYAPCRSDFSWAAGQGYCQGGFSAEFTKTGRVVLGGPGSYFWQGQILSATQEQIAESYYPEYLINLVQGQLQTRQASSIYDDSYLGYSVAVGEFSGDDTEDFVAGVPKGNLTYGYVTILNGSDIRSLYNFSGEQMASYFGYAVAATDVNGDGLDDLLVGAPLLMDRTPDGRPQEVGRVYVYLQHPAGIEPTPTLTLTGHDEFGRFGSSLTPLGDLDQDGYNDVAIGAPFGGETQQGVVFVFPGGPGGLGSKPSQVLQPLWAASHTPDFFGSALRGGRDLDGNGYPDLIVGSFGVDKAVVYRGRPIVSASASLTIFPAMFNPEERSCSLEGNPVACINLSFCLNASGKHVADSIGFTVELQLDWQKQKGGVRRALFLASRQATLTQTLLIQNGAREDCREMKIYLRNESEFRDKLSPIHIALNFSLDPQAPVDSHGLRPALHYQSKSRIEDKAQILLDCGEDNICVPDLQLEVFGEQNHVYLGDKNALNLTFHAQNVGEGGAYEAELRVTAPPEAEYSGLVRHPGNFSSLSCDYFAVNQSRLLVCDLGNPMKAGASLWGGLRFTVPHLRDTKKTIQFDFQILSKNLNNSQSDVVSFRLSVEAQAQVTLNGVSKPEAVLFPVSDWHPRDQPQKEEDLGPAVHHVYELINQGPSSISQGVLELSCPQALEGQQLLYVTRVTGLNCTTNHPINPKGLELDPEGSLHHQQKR
Sequence of recombinant human α5β1 integrin (P08648 895-1049 partner limits assumed): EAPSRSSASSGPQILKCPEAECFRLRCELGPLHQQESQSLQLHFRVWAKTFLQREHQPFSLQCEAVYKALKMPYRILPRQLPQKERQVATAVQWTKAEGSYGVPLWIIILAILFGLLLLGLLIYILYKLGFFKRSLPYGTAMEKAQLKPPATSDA
Sequence of recombinant human α5β1 integrin (P05556 21-798): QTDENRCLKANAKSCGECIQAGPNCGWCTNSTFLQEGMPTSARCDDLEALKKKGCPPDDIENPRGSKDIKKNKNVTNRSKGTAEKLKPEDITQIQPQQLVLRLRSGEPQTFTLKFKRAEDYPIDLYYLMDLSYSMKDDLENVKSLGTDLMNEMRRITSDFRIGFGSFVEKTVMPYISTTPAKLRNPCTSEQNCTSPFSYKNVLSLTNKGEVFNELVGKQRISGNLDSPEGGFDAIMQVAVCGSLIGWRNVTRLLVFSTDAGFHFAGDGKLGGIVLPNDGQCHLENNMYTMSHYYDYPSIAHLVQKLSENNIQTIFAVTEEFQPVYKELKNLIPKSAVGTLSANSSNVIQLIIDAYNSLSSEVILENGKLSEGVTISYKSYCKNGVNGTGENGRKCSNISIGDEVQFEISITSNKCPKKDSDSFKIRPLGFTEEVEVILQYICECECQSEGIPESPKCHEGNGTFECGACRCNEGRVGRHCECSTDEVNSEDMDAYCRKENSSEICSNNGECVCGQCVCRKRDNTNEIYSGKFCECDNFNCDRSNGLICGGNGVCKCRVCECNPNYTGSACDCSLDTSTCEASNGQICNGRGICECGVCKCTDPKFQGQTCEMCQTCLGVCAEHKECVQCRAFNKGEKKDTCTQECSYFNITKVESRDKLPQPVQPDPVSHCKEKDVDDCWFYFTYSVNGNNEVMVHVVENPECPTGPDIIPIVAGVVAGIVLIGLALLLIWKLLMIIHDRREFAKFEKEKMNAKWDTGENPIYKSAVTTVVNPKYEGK

In general, pIC50 refers to the IC50 on a negative log10 scale, so that one unit is a factor of ten. With `CNc1cccc(CCCc2ccc(C[C@H](NC(=O)c3c(C)noc3C)C(=O)O)s2)n1` [Example 1.1, N-[(3,5-dimethylisoxazol-4-yl)carbonyl]-3-(5-{3-[6-(methylamino)pyridin-2-yl]propyl}thiophen-2-yl)-L-alanine], the values for the pIC50 in assay [1] and in assay [2] (setting [3]) were 8.40 and 7.57, respectively.
The corresponding values for `CNc1cccc(CCCc2ccc(C[C@H](NC(=O)c3c(Cl)cncc3Cl)C(=O)O)s2)n1` [Example 1.2, N-[(3,5-dichloropyridin-4-yl)carbonyl]-3-(5-{3-[6-(methylamino)pyridin-2-yl]propyl}thiophen-2-yl)-L-alanine] are 9.00 and 8.10.
The corresponding values for `Cc1noc(C)c1C(=O)N[C@@H](Cc1ccc(CCCc2ccc3c(n2)NCCC3)s1)C(=O)O` [Example 2, N-[(3,5-dimethylisoxazol-4-yl)carbonyl]-3-{5-[3-(5,6,7,8-tetrahydro-1,8-naphthyridin-2-yl)propyl]thiophen-2-yl}-L-alanine] are over 9.00 and 7.92.
For the compound `O=C(N[C@@H](Cc1ccc(CCCc2ccc3c(n2)NCCC3)s1)C(=O)O)c1c(Cl)cncc1Cl` [Example 3, N-(3,5-dichloroisonicotinoyl)-3-{5-[3-(5,6,7,8-tetrahydro-1,8-naphthyridin-2-yl)propyl]-thiophen-2-yl}-L-alanine], the pIC50 is 9.52 in assay [1]; over 8.40 in assay [2] (setting [3]); 8.30 in assay [2] (Homo sapiens, K562, single determinations listed in brackets under the geometric mean (n = 3), read-out: Adhesion Assay (b) IC50, individual measured values); over 8.52 in assay [2] (single determinations listed in brackets under the geometric mean (n = 3), read-out: Adhesion Assay (b) IC50, individual measured values).
As to `O=C(N[C@@H](Cc1ccc(OCCc2ccc3c(n2)NCCC3)s1)C(=O)O)c1c(Cl)cncc1Cl` [Example 4, N-(3,5-dichloroisonicotinoyl)-3-{5-[2-(5,6,7,8-tetrahydro-1,8-naphthyridin-2-yl)ethoxy]-2-thienyl}-L-alanine], the figures for the pIC50 in assay [1] and in assay [2] (setting [3]) were over 9.00 and over 8.52, respectively.
